Results on 19 compounds are retold here after patent publication US20260365653A1, “IRREVERSIBLE MUTEGFR INHIBITORS” (Bayer Aktiengesellschaft, priority 2022, published 2026).

Broadly, the IC50 is the concentration needed to halve the response being measured.

The target in experiment [1] is T1, mutEGFR (D770_N771insNPG, T790) (Homo sapiens, UniProt P00533, INS770NPG/T790M).
T1 construct: exact insNPG construct not described; in-house EGFR proteins were N-terminal GST fusions from baculovirus/insect cells (borders R669-A1210 given only for WT, insSVD, insASV)
The experiment in a line: mutEGFR (D770_N771insNPG, T790) kinase assay. In kind it is biochemical. The source says:
The different EGFR proteins used in the biochemical kinase activity inhibition assays were generated inhouse by expression in insect cells using Baculo Virus system and subsequent purification as described in the following paragraphs.
The cDNAs encoding the various protein sequences from human EGFR human (P00533) were optimized for expression in eukaryotic cells and synthesized by the GeneArt Technology at Life Technologies.

The target of experiment [2] is T2, mutEGFR (D770_N771insSVD) (Homo sapiens, UniProt P00533, DUP768-770).
T2 construct: GST-EGFR #3 (SVD between D770 and N771); made in house; host or cells: Sf9 insect cells (baculovirus)
Kind of experiment: Exon20-Mutant-EGFR (D770_N771insSVD) kinase assay (TR-FRET). It is filed as biochemical.

The test system of experiment [3] is BA/F3 (insSVD) cells. Kind of experiment: Ba/F3-EGFR-insSVD cell survival assay (Cell Titer-Glo). In kind it is cell-based. Particulars: Mus musculus, BaF3, 48 h. In short, it runs like this:
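Ba/F3 cells stably expressing retroviral EGFR-insSVD or insSVD T790M, grown without IL-3 on 10 ng/ml EGF, 4000 cells/well. Compound pinned in, 48 h at 37° C. Viability by CellTiter-Glo luminescence.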
For orientation: Cellular ATP, detected with luciferase, serves as a proxy for viable cell number.

Where [4] appears, read: Table 2b (from US Priority Patent Application), mutEGFR D770_N771insNPG.
Setting [5] is: mutEGFR (D770_N771insSVD) kinase assay IC50, Table 2a, D770_N771insSVD, 2 mM ATP.
Setting [6] is: mutEGFR (D770_N771insSVD) kinase assay IC50, Table 2b (from US Priority Patent Application), mutEGFR D770_N771insSVD.
Where [7] appears, read: Table 3a, cell survival, Cell Titer-Glo, with 10 ng/ml EGF, without IL-3.

“And” between values parts separate entries of the source, which are not always exact repeats. Equal values may be shown once. A value given as a limit tells only on which side of the number the result lay.

T1 sequence (P00533 with tags, fused parts or gaps INS770NPG/T790M limits assumed): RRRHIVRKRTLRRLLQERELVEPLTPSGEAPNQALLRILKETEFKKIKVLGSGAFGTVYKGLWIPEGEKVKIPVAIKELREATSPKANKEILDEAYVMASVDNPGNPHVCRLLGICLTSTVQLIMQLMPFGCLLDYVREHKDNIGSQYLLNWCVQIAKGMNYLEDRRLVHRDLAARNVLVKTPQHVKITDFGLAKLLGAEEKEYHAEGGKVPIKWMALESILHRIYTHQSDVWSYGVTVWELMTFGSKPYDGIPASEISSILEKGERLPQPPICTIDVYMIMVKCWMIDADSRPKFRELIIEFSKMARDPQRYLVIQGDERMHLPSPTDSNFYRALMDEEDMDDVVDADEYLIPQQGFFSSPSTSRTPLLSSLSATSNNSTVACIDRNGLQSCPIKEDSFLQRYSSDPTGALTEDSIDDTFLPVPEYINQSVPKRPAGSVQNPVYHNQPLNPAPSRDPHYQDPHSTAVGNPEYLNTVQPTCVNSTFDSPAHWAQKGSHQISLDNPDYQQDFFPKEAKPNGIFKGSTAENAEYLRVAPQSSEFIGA
T2 sequence (P00533 with tags, fused parts or gaps DUP768-770): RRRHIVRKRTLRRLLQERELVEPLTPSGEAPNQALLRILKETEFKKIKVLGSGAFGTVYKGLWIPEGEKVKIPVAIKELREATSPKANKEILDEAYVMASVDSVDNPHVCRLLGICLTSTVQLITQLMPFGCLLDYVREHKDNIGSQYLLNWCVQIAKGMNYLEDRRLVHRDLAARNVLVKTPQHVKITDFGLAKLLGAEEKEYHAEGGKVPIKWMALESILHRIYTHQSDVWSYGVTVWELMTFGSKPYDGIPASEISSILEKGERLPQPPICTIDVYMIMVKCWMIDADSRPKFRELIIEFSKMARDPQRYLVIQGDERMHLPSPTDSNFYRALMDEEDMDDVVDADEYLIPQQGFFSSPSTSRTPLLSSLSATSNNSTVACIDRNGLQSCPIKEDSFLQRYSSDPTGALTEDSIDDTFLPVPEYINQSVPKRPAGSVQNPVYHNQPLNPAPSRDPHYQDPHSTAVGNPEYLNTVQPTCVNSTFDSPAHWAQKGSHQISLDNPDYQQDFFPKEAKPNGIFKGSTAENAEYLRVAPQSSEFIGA

As for `C=CC(=O)N1CCn2nc(-c3ccc(Cl)c(C)c3)c(-c3ccncc3)c2C1` [Example 2, 1-[2-(4-chloro-3-methylphenyl)-3-(pyridin-4-yl)-6,7-dihydropyrazolo[1,5-a]pyrazin-5(4H)-yl]prop-2-en-1-one], the IC50 in experiment [1] (Table 2a, D770_N771insNPG) was 0.146 nM; in experiment [1] (setting [4]) it was 0.146 nM; in experiment [2] (setting [5]), 0.105 nM and < 0.0725 nM; in experiment [2] (setting [6]), < 0.0725 nM and 0.105 nM; in experiment [3] (setting [7]), 20.6 nM; in experiment [3] (Table 3b, Ba/F3 EGFR-insSVD), 20.6 nM.
Take `C=CC(=O)N1CCn2nc(-c3cccc(F)c3)c(-c3ccncc3)c2C1` [Example 4, 1-[2-(3-fluorophenyl)-3-(pyridin-4-yl)-6,7-dihydropyrazolo[1,5-a]pyrazin-5(4H)-yl]prop-2-en-1-one]: the IC50 in experiment [1] (Table 2a, D770_N771insNPG) came out at 1.47 nM; in experiment [1] (setting [4]), 1.47 nM; in experiment [2] (setting [5]), 1.45 nM; in experiment [2] (setting [6]), 1.45 nM; in experiment [3] (setting [7]), 50.5 nM; in experiment [3] (Table 3b, Ba/F3 EGFR-insSVD), 50.5 nM.
`CN(C)C/C=C/C(=O)N1CCn2nc(-c3ccc(F)cc3)c(-c3ccnc(NC(=O)C4CC4)c3)c2C1` [Example 8, N-(4-{5-[(2E)-4-(dimethylamino)but-2-enoyl]-2-(4-fluorophenyl)-4,5,6,7-tetrahydropyrazolo[1,5-a]pyrazin-3-yl}pyridin-2-yl)cyclopropanecarboxamide]: the concentration for half-maximal inhibition (IC50) was 0.765 nM in experiment [1] (Table 2a, D770_N771insNPG); 0.765 nM in experiment [1] (setting [4]); 0.393 nM in experiment [2] (setting [5]); 0.393 nM in experiment [2] (setting [6]); 20.4 nM in experiment [3] (setting [7]); 20.4 nM in experiment [3] (Table 3b, Ba/F3 EGFR-insSVD).
Consider `O=C(Nc1cc(-c2c(-c3ccc(F)cc3)nn3c2CN(C(=O)C2CO2)CC3)ccn1)C1CC1` (stereo not shown) [Example 9, N-{4-[2-(4-fluorophenyl)-5-(oxirane-2-carbonyl)-4,5,6,7-tetrahydropyrazolo[1,5-a]pyrazin-3-yl]pyridin-2-yl}cyclopropanecarboxamide], for which the IC50 in experiment [1] (Table 2a, D770_N771insNPG) was found to be 104 nM; in experiment [1] (setting [4]), 104 nM; in experiment [2] (setting [5]) it was 64.5 nM; in experiment [2] (setting [6]) it was 64.5 nM; in experiment [3] (setting [7]), 2040 nM; in experiment [3] (Table 3b, Ba/F3 EGFR-insSVD) it was 2040 nM.
For `C=CC(=O)N1CCn2nc(-c3ccc(F)cc3)c(-c3ccnc(OC)c3)c2C1` [Example 11, 1-[2-(4-fluorophenyl)-3-(2-methoxypyridin-4-yl)-6,7-dihydropyrazolo[1,5-a]pyrazin-5(4H)-yl]prop-2-en-1-one], the 50% inhibitory concentration (IC50) in experiment [1] (Table 2a, D770_N771insNPG) was 43.8 nM; in experiment [1] (setting [4]), 43.8 nM; in experiment [2] (setting [5]), 29.6 nM; in experiment [2] (setting [6]), 29.6 nM; in experiment [3] (setting [7]) it was 1560 nM; in experiment [3] (Table 3b, Ba/F3 EGFR-insSVD), 1560 nM.
As for `C=CC(=O)N1CCn2nc(-c3ccc(F)cc3)c(-c3ccncc3OC)c2C1` [Example 12, 1-[2-(4-fluorophenyl)-3-(3-methoxypyridin-4-yl)-6,7-dihydropyrazolo[1,5-a]pyrazin-5(4H)-yl]prop-2-en-1-one], the IC50 came out at 84.2 nM in experiment [1] (Table 2a, D770_N771insNPG); 84.2 nM in experiment [1] (setting [4]); 37.1 nM in experiment [2] (setting [5]); 37.1 nM in experiment [2] (setting [6]); 359 nM in experiment [3] (setting [7]); 359 nM in experiment [3] (Table 3b, Ba/F3 EGFR-insSVD).
Consider `C#CC(=O)N1CCn2nc(-c3ccc(F)cc3)c(-c3ccncc3)c2C1` [Example 13, 1-[2-(4-fluorophenyl)-3-(pyridin-4-yl)-6,7-dihydropyrazolo[1,5-a]pyrazin-5(4H)-yl]prop-2-yn-1-one], for which the concentration for half-maximal inhibition (IC50) turned out to be 1.26 nM in experiment [1] (Table 2a, D770_N771insNPG); 1.26 nM in experiment [1] (setting [4]); 0.807 nM in experiment [2] (setting [5]); 0.807 nM in experiment [2] (setting [6]); 909 nM in experiment [3] (setting [7]); 909 nM in experiment [3] (Table 3b, Ba/F3 EGFR-insSVD).
With `CN(C)C/C=C/C(=O)N1CCn2nc(-c3ccc(F)cc3)c(-c3ccncc3)c2C1` [Example 15, (2E)-4-(dimethylamino)-1-[2-(4-fluorophenyl)-3-(pyridin-4-yl)-6,7-dihydropyrazolo[1,5-a]pyrazin-5(4H)-yl]but-2-en-1-one], the half-maximal inhibitory concentration (IC50) in experiment [1] (Table 2a, D770_N771insNPG) came out at 1.08 nM; in experiment [1] (setting [4]), 1.08 nM; in experiment [2] (setting [5]), 0.729 nM; in experiment [2] (setting [6]), 0.729 nM; in experiment [3] (setting [7]) it was 86.9 nM; in experiment [3] (Table 3b, Ba/F3 EGFR-insSVD), 86.9 nM.
As for `CC#CC(=O)N1CCn2nc(-c3ccc(F)cc3)c(-c3ccncc3)c2C1` [Example 16, 1-[2-(4-fluorophenyl)-3-(pyridin-4-yl)-6,7-dihydropyrazolo[1,5-a]pyrazin-5(4H)-yl]but-2-yn-1-one], the concentration for half-maximal inhibition (IC50) in experiment [1] (Table 2a, D770_N771insNPG) was 76.6 nM; in experiment [1] (setting [4]) it was 76.6 nM; in experiment [2] (setting [5]) it was 55.2 nM; in experiment [2] (setting [6]), 55.2 nM; in experiment [3] (setting [7]), 774 nM; in experiment [3] (Table 3b, Ba/F3 EGFR-insSVD), 774 nM.
Regarding `C=C(F)C(=O)N1CCn2nc(-c3ccc(F)cc3)c(-c3ccncc3)c2C1` [Example 17, 2-fluoro-1-[2-(4-fluorophenyl)-3-(pyridin-4-yl)-6,7-dihydropyrazolo[1,5-a]pyrazin-5(4H)-yl]prop-2-en-1-one], the IC50 in experiment [1] (Table 2a, D770_N771insNPG) worked out at 85.8 nM; in experiment [1] (setting [4]) it was 85.8 nM; in experiment [2] (setting [5]) it was 55.7 nM; in experiment [2] (setting [6]), 55.7 nM; in experiment [3] (setting [7]), 1150 nM; in experiment [3] (Table 3b, Ba/F3 EGFR-insSVD) it was 1150 nM.
For `C=CC(=O)N1CCn2nc(Nc3ccc(F)cc3)c(-c3ccncc3)c2C1` [Example 19, 1-[2-(4-fluoroanilino)-3-(pyridin-4-yl)-6,7-dihydropyrazolo[1,5-a]pyrazin-5(4H)-yl]prop-2-en-1-one], the 50% inhibitory concentration (IC50) came out at 210 nM in experiment [1] (Table 2a, D770_N771insNPG); 25.9 nM in experiment [2] (setting [5]); 25.9 nM in experiment [2] (setting [6]); 823 nM in experiment [3] (setting [7]); 823 nM in experiment [3] (Table 3b, Ba/F3 EGFR-insSVD).
Consider `C=CC(=O)N1CCn2nc(-c3ccc(F)cc3)c(-c3ccnc(Nc4ccccc4)c3)c2C1` [Example 20, 1-[3-(2-anilinopyridin-4-yl)-2-(4-fluorophenyl)-6,7-dihydropyrazolo[1,5-a]pyrazin-5(4H)-yl]prop-2-en-1-one], for which the concentration for half-maximal inhibition (IC50) in experiment [1] (Table 2a, D770_N771insNPG) was 9.13 nM; in experiment [2] (setting [5]), 3.54 nM; in experiment [2] (setting [6]), 3.54 nM; in experiment [3] (setting [7]) it was 617 nM; in experiment [3] (Table 3b, Ba/F3 EGFR-insSVD), 617 nM.
In the case of `CN(C)C/C=C/C(=O)N1CCn2nc(-c3ccc(F)cc3)c(-c3ccnc(Nc4ccccc4)c3)c2C1` [Example 21, (2E)-1-[3-(2-anilinopyridin-4-yl)-2-(4-fluorophenyl)-6,7-dihydropyrazolo[1,5-a]pyrazin-5(4H)-yl]-4-(dimethylamino)but-2-en-1-one], the IC50 came to 4.45 nM in experiment [1] (Table 2a, D770_N771insNPG); 1.17 nM in experiment [2] (setting [5]); 1.17 nM in experiment [2] (setting [6]); 101 nM in experiment [3] (setting [7]); 101 nM in experiment [3] (Table 3b, Ba/F3 EGFR-insSVD).
Regarding `C=CC(=O)N1CCn2nc(-c3ccc(F)cc3)c(-c3ccnc4[nH]ccc34)c2C1` [Example 22, 1-[2-(4-fluorophenyl)-3-(1H-pyrrolo[2,3-b]pyridin-4-yl)-6,7-dihydropyrazolo[1,5-a]pyrazin-5(4H)-yl]prop-2-en-1-one], the IC50 in experiment [1] (Table 2a, D770_N771insNPG) worked out at 3.34 nM; in experiment [2] (setting [5]) it was 5.12 nM; in experiment [2] (setting [6]), 5.12 nM; in experiment [3] (setting [7]) it was 62 nM; in experiment [3] (Table 3b, Ba/F3 EGFR-insSVD), 62 nM.
Regarding `C/C=C/C(=O)N1CCn2nc(-c3ccc(F)cc3)c(-c3ccncc3)c2C1` [Example 23, (2E)-1-[2-(4-fluorophenyl)-3-(pyridin-4-yl)-6,7-dihydropyrazolo[1,5-a]pyrazin-5(4H)-yl]but-2-en-1-one], the half-inhibitory concentration (IC50) came to 804 nM in experiment [1] (Table 2a, D770_N771insNPG); 208 nM in experiment [2] (setting [5]); 208 nM in experiment [2] (setting [6]); 3850 nM in experiment [3] (setting [7]).
For `C=C(C)C(=O)N1CCn2nc(-c3ccc(F)cc3)c(-c3ccncc3)c2C1` [Example 24, 1-[2-(4-fluorophenyl)-3-(pyridin-4-yl)-6,7-dihydropyrazolo[1,5-a]pyrazin-5(4H)-yl]-2-methylprop-2-en-1-one], the half-inhibitory concentration (IC50) in experiment [1] (Table 2a, D770_N771insNPG) was 14600 nM and > 20000 nM; in experiment [2] (setting [5]) it was 1150 nM; in experiment [2] (setting [6]) it was 1150 nM; in experiment [3] (setting [7]), 9980 nM.
For `CN(C)C/C=C/C(=O)N1CCn2nc(-c3ccc(Cl)c(F)c3)c(-c3ccncc3)c2C1` [Example 25, (2E)-1-[2-(4-chloro-3-fluorophenyl)-3-(pyridin-4-yl)-6,7-dihydropyrazolo[1,5-a]pyrazin-5(4H)-yl]-4-(dimethylamino)but-2-en-1-one], the concentration for half-maximal inhibition (IC50) turned out to be 2.12 nM in experiment [1] (Table 2a, D770_N771insNPG); 0.6 nM in experiment [2] (setting [5]); 62.3 nM in experiment [3] (setting [7]).
For `CN(C)C/C=C/C(=O)N1CCn2nc(-c3ccc(Cl)cc3F)c(-c3ccncc3)c2C1` [Example 26, (2E)-1-[2-(4-chloro-2-fluorophenyl)-3-(pyridin-4-yl)-6,7-dihydropyrazolo[1,5-a]pyrazin-5(4H)-yl]-4-(dimethylamino)but-2-en-1-one], in that order: 3.3 nM, 1.26 nM and 70.3 nM.
For the compound `COc1ccc(-c2nn3c(c2-c2ccncc2)CN(C(=O)/C=C/CN(C)C)CC3)cc1Cl` [Example 27, (2E)-1-[2-(3-chloro-4-methoxyphenyl)-3-(pyridin-4-yl)-6,7-dihydropyrazolo[1,5-a]pyrazin-5(4H)-yl]-4-(dimethylamino)but-2-en-1-one], the IC50 turned out to be 3.02 nM in experiment [1] (Table 2a, D770_N771insNPG); 3.77 nM in experiment [2] (setting [5]); 679 nM in experiment [3] (setting [7]).
